Measured values taken from ChEMBL document CHEMBL5338773, “First-in-Class Selective Inhibitors of the Lysine Acetyltransferase KAT8” (J Med Chem, 2023).
Activity calls are given as the source filed them. No cut-off for these calls is given here.

Legend:
[1] = target: Histone acetyltransferase KAT2B (Homo sapiens) (UniProt Q92831); assay: Inhibition of recombinant human KAT2B (492 to 658 residues) using histone H3 peptide and [3H]-acetyl-coA as substrates at 200 uM incubated for 1 hrs by liquid scintillation counter analysis
Chain of Histone acetyltransferase KAT2B (Homo sapiens) (Q92831 whole entry, looked up, the tested form may be a part): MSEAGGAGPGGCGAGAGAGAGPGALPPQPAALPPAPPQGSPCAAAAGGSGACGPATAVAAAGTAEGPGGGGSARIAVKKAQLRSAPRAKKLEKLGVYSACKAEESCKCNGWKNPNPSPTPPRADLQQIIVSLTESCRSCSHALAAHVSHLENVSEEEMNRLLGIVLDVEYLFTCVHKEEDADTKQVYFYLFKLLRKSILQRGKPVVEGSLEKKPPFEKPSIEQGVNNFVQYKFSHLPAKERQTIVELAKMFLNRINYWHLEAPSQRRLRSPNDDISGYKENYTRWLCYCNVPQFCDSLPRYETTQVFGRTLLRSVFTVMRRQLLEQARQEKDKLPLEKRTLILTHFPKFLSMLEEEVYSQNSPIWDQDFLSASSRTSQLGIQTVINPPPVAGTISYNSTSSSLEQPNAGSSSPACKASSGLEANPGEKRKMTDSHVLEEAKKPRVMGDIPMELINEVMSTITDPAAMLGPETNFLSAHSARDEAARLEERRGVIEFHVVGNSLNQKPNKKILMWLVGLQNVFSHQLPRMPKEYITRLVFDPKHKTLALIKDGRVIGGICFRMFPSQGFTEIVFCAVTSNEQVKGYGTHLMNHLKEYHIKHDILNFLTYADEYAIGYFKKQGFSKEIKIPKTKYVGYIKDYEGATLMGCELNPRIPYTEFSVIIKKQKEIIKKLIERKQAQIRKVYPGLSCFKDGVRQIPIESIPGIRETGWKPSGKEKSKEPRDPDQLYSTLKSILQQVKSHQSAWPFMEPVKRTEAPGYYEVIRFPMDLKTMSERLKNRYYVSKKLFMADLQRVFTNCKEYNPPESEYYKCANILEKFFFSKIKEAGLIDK

[2] = target: Histone acetyltransferase KAT2A (Homo sapiens) (UniProt Q92830); assay: Inhibition of recombinant human KAT2A (323 to 837 residues) using histone H3 peptide and [3H]-acetyl-coA as substrates at 200 uM incubated for 1 hrs by liquid scintillation counter analysis
Chain of Histone acetyltransferase KAT2A (Homo sapiens) (Q92830 2-837 limits assumed): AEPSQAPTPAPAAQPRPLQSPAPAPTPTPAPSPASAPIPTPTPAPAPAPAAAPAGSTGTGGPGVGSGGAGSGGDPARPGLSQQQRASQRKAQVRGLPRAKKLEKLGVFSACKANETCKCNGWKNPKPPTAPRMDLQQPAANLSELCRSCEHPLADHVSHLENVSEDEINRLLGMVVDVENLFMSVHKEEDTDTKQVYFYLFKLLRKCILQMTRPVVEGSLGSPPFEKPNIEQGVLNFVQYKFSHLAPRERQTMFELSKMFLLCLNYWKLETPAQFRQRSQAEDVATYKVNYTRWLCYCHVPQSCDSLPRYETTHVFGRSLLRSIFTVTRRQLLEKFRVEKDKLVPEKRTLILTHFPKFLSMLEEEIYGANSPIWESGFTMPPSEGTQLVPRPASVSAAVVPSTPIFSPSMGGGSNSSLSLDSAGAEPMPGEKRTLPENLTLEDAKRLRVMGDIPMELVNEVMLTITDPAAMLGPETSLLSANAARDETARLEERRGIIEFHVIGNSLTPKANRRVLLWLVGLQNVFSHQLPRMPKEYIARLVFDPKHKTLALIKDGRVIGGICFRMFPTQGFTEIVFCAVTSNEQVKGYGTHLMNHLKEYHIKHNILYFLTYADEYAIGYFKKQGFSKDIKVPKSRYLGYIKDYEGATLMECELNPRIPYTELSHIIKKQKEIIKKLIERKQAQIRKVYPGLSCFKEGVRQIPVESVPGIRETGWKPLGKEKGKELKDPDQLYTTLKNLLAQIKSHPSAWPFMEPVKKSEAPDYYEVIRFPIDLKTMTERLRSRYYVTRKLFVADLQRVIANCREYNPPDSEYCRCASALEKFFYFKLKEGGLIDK

A549 = assay: Antiproliferative activity against human A549 cells assessed as cell proliferation inhibition at 10 to 100 uM incubated for 72 hrs by MTT assay; assay type: functional, cell-based; details: dose 10-100 µM
HT-29 [3] = assay: Induction of cell cycle arrest in human HT-29 cells assessed as increase in number of cells at sub-G1 phase with DNA hypodiploid at 50 uM incubated for 72 hrs by PI-staining based flow cytometry (Rvb=2%); assay type: functional
[4] = target: T1, Histone acetyltransferase KAT8 (Homo sapiens) (UniProt Q9H7Z6); assay: Reversible inhibition of N-terminal 6His tagged KAT8 (173 to 458 residues) (unknown origin) expressed in Escherichia coli BL21(DE3) using biotinylated histone H4 peptide and [3H]Acetyl-CoA as substrates at 10XIC50 preincubated for 30 mins followed by dilution and substrate addition and measured upto 240 mins by MicroBeta microplate counter analysis; details: time 270.0 min
T1 sequence (whole entry): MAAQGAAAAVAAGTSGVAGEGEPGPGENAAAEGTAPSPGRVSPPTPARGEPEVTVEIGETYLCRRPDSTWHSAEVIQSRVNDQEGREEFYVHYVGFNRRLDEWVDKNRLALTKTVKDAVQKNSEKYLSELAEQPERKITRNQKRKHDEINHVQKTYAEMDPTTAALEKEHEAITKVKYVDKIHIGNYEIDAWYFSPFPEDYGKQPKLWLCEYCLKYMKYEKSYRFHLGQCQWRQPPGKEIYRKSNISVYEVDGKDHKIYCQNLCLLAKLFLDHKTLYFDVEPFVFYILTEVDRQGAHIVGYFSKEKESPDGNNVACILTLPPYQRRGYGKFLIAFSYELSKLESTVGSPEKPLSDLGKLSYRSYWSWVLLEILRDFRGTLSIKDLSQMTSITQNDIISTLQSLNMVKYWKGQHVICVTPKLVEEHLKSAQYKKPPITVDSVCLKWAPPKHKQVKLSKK

HT-29 [5] = assay: Antiproliferative activity against human HT-29 cells assessed as cell proliferation inhibition at 10 to 100 uM incubated for 72 hrs by MTT assay; assay type: functional, cell-based; details: dose 10-100 µM
HT-29 [6] = assay: Induction of cell cycle arrest in human HT-29 cells assessed as increase in number of cells at sub-G1 phase with DNA hypodiploid at 100 uM incubated for 72 hrs by PI-staining based flow cytometry (Rvb=2%); assay type: functional
HT-29 [7] = assay: Induction of apoptosis in human HT-29 cells assessed as slight increase in apoptotic cells at 50 to 100 uM incubated for 72 hrs by Annexin V-FITC staining based flow cytometry; assay type: functional, cell-based; details: dose 50-100 µM
HeLa = assay: Induction of apoptosis in human HeLa cells assessed as slight increase in apoptotic cells at 50 to 100 uM incubated for 72 hrs by Annexin V-FITC staining based flow cytometry; assay type: functional, cell-based; details: dose 50-100 µM
[8] = target: Histone acetyltransferase p300 (Homo sapiens) (UniProt Q09472); assay: Inhibition of recombinant human KAT3B (1287 to 1673 residues) using histone H3 peptide and [3H]-acetyl-coA as substrates at 200 uM incubated for 1 hrs by liquid scintillation counter analysis
Chain of Histone acetyltransferase p300 (Homo sapiens) (Q09472 whole entry, the tested form may be a part): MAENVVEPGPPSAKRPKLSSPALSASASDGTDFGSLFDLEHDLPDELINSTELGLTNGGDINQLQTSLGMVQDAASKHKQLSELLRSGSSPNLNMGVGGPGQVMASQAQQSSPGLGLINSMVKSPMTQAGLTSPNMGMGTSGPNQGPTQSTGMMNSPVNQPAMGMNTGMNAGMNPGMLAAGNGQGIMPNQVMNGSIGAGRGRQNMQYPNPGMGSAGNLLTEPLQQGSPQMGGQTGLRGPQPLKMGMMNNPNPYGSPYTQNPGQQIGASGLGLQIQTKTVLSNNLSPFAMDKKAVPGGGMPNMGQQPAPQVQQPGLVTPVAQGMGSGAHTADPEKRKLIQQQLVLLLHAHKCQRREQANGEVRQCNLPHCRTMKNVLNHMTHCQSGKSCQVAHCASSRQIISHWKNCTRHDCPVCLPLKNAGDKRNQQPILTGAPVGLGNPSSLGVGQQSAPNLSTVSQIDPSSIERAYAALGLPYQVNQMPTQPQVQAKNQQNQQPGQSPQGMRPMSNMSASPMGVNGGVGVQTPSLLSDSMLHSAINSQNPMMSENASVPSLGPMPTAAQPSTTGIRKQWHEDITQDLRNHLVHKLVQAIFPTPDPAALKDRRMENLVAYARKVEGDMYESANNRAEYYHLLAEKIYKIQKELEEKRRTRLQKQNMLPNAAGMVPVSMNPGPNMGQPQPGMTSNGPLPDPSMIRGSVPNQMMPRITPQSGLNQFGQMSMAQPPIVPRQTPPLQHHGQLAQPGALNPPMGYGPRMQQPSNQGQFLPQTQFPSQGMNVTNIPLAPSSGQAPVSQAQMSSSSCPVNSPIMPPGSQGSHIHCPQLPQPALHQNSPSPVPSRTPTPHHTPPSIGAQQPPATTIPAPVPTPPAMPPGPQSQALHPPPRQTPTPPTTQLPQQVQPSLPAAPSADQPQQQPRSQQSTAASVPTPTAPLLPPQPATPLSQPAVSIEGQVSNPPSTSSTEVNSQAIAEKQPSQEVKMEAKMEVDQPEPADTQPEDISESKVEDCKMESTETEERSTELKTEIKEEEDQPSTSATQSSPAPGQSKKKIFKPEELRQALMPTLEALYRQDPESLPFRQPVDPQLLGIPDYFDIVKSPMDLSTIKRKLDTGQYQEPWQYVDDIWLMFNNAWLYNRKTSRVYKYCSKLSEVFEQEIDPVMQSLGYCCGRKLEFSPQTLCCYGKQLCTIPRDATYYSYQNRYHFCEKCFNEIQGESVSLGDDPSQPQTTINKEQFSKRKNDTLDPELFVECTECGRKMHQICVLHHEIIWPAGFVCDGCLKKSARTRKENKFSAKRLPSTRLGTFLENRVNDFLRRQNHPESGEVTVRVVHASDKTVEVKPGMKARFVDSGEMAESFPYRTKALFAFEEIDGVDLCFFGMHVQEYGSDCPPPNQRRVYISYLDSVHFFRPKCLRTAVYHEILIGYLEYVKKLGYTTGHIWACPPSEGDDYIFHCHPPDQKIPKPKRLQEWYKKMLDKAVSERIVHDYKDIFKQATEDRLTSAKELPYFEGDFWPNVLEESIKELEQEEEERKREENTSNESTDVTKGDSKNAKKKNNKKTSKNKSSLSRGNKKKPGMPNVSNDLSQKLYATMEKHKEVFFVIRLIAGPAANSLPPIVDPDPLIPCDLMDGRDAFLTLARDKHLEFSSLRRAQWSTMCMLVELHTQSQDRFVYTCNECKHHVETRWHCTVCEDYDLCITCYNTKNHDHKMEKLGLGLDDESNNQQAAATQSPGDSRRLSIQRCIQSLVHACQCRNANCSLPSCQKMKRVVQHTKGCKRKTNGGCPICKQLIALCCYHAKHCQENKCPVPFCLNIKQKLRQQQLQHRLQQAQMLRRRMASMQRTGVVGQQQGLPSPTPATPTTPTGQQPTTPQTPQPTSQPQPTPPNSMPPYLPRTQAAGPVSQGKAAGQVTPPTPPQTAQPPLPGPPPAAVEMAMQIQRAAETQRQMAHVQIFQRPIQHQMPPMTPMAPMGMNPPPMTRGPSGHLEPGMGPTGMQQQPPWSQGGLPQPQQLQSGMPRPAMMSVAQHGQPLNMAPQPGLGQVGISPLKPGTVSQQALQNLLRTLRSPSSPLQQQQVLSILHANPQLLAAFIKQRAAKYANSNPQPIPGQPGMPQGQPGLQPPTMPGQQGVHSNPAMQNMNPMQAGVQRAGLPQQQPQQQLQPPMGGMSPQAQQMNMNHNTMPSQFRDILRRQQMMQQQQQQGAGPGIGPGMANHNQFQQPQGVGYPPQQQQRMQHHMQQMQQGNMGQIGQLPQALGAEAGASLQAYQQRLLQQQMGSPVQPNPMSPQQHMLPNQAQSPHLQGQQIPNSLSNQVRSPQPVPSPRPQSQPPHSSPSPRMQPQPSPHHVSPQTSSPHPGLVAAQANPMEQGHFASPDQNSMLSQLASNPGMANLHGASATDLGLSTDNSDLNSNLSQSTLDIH

NCI-H1299 [9] = assay: Induction of autophagy in human NCI-H1299 cells stably expressing EGFP-LC3 assessed as increase in p62 expression level at 10 to 100 uM incubated for 48 hrs by Western blot analysis; assay type: functional, cell-based; details: dose 10-100 µM
NCI-H1299 [10] = assay: Induction of autophagy in human NCI-H1299 cells stably expressing EGFP-LC3 assessed as change in LC3-II/LC3-I ratio at 10 to 100 uM incubated for 48 hrs by Western blot analysis; assay type: functional, cell-based; details: dose 10-100 µM
[11] = target: T2, Protein deacetylase HDAC6 (Homo sapiens) (UniProt Q9UBN7); assay: Inhibition of human recombinant KDAC6 using Boc-Lys-(Ac)-AMC as substrate at 50 to 100 uM incubated for 45 mins by fluorescence microplate reader analysis; details: dose 50-100 µM
T2 sequence (whole entry): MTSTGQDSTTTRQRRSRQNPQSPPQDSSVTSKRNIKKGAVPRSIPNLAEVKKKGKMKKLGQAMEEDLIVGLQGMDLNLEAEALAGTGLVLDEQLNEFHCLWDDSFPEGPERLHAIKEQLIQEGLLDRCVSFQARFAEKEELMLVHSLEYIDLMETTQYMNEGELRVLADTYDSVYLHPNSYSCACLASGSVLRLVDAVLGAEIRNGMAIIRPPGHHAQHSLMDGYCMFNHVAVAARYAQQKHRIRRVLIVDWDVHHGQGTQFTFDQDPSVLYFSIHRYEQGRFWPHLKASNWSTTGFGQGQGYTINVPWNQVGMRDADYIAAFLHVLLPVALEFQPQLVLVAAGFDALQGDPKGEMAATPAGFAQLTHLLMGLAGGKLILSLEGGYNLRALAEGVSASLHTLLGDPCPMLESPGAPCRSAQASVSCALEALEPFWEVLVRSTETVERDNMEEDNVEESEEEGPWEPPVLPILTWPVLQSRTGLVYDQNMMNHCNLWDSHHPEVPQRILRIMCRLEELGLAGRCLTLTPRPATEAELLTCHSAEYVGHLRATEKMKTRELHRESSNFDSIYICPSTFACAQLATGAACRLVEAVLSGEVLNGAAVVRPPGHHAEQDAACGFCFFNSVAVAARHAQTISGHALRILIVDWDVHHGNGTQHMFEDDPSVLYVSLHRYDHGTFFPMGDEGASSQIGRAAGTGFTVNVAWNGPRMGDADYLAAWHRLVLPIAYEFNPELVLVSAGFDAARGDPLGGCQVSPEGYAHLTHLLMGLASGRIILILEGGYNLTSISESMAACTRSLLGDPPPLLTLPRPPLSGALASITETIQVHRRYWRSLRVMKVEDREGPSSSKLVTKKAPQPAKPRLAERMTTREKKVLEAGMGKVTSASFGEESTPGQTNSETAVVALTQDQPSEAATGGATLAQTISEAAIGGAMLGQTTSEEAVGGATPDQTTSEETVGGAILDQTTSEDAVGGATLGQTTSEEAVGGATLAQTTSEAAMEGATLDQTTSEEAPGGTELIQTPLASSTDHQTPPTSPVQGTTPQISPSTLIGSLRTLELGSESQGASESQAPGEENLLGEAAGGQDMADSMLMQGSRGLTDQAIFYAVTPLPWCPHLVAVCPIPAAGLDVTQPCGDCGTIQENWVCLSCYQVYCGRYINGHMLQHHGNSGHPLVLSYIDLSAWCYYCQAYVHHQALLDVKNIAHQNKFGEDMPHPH

NCI-H1299 [12] = assay: Antiproliferative activity against human NCI-H1299 cells assessed as cell proliferation inhibition at 10 to 100 uM incubated for 72 hrs by MTT assay; assay type: functional, cell-based; details: dose 10-100 µM

Structure (SMILES) | inhibition [1] | inhibition [2] | Activity (A549) | Activity (HT-29 [3]) | inhibition [4] | Activity (HT-29 [5]) | Activity (HT-29 [6]) | Activity (HT-29 [7]) | Activity (HeLa) | inhibition [8] | Activity (NCI-H1299 [9]) | Activity (NCI-H1299 [10]) | inhibition [11] | Activity (NCI-H1299 [12])
CC1=NN(c2ccc(C(=O)O)cc2)C(=O)/C1=C\c1ccc[nH]1 | inactive | inactive | Dose-Dependent Effect | 7% | Active | Active | 15% | Active | Active | inactive | Active | Active | inactive | Dose-Dependent Effect
O=C(O)c1ccc(N2N=C(c3ccccc3)/C(=C/c3ccc[nH]3)C2=O)cc1 | inactive | inactive | Dose-Dependent Effect | 8% | Active | Active | 14% | Active | Active | inactive | Active | Active | inactive | Dose-Dependent Effect
